Literature values as cited in article PMC9851200, “Multiparameter phenotypic screening for endogenous TFEB and TFE3 translocation identifies novel chemical series modulating lysosome function” (Autophagy, 2022).

How the values were obtained:
Parameters in all cases: method as in original PKIS2 published data
[1] = target: kinases (KINOMEscan panel) (Homo sapiens, UniProt P49841); settings: Published KINOMEscan; ref original PKIS2 published data; cited from earlier work
[2] = target: kinases (KINOMEscan panel) (Homo sapiens, UniProt O95747); settings: Published KINOMEscan; ref original PKIS2 published data; cited from earlier work
Chain of kinases (KINOMEscan panel) (Homo sapiens, UniProt O95747) (O95747 whole entry): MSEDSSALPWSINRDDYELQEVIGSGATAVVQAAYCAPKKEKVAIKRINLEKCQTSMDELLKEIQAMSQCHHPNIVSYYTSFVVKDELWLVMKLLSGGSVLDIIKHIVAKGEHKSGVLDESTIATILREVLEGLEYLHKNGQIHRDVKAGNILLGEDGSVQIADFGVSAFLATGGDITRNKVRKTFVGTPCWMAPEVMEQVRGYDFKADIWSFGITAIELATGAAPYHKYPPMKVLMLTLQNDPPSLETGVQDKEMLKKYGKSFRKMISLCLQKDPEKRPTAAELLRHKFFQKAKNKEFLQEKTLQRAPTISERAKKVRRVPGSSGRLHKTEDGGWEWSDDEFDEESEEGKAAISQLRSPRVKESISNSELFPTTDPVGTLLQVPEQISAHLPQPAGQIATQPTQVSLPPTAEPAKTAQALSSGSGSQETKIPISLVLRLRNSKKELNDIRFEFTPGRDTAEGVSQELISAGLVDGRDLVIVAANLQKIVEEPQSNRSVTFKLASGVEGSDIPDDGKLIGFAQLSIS

[3] = target: kinases (KINOMEscan panel) (Homo sapiens, UniProt Q9HC98); settings: kinase NEK6; Published KINOMEscan; ref original PKIS2 published data; cited from earlier work
Chain of kinases (KINOMEscan panel) (Homo sapiens, UniProt Q9HC98) (Q9HC98 whole entry): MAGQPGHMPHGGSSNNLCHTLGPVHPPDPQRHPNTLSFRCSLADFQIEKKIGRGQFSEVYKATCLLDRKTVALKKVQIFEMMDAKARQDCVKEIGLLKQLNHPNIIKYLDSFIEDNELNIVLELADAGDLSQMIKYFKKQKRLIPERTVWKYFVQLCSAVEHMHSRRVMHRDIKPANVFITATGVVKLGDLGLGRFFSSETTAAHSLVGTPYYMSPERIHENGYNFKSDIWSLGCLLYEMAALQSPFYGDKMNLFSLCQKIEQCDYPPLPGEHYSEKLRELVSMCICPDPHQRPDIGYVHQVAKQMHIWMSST

[4] = target: T1, kinases (KINOMEscan panel) (Homo sapiens, UniProt Q13470); settings: TNK1; Published KINOMEscan; ref original PKIS2 published data; cited from earlier work
T1 sequence (Q13470 1-666): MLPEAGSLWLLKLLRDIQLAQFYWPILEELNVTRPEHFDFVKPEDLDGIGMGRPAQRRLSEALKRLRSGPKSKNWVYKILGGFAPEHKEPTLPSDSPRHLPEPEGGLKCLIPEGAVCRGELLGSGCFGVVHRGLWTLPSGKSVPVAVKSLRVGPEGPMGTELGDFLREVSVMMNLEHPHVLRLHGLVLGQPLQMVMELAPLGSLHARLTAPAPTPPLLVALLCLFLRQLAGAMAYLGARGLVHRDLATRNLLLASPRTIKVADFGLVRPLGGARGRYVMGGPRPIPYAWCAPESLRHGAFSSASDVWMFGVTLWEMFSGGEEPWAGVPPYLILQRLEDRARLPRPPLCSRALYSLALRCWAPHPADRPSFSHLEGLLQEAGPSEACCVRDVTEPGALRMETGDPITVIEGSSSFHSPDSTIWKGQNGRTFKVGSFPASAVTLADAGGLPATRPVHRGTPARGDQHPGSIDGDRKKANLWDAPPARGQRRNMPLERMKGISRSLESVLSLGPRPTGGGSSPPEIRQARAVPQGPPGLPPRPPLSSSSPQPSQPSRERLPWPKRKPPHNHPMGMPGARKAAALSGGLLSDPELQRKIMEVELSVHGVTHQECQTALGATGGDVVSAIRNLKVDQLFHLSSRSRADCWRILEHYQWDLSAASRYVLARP

[5] = target: kinases (KINOMEscan panel) (Homo sapiens, UniProt P08922); settings: kinase ROS1; Published KINOMEscan; ref original PKIS2 published data; cited from earlier work
[6] = target: kinases (KINOMEscan panel) (Homo sapiens, UniProt P22455); settings: Published KINOMEscan; ref original PKIS2 published data; cited from earlier work
[7] = target: kinases (KINOMEscan panel) (Homo sapiens, UniProt Q9BYP7); settings: Published KINOMEscan; ref original PKIS2 published data; cited from earlier work
Chain of kinases (KINOMEscan panel) (Homo sapiens, UniProt Q9BYP7) (Q9BYP7 whole entry): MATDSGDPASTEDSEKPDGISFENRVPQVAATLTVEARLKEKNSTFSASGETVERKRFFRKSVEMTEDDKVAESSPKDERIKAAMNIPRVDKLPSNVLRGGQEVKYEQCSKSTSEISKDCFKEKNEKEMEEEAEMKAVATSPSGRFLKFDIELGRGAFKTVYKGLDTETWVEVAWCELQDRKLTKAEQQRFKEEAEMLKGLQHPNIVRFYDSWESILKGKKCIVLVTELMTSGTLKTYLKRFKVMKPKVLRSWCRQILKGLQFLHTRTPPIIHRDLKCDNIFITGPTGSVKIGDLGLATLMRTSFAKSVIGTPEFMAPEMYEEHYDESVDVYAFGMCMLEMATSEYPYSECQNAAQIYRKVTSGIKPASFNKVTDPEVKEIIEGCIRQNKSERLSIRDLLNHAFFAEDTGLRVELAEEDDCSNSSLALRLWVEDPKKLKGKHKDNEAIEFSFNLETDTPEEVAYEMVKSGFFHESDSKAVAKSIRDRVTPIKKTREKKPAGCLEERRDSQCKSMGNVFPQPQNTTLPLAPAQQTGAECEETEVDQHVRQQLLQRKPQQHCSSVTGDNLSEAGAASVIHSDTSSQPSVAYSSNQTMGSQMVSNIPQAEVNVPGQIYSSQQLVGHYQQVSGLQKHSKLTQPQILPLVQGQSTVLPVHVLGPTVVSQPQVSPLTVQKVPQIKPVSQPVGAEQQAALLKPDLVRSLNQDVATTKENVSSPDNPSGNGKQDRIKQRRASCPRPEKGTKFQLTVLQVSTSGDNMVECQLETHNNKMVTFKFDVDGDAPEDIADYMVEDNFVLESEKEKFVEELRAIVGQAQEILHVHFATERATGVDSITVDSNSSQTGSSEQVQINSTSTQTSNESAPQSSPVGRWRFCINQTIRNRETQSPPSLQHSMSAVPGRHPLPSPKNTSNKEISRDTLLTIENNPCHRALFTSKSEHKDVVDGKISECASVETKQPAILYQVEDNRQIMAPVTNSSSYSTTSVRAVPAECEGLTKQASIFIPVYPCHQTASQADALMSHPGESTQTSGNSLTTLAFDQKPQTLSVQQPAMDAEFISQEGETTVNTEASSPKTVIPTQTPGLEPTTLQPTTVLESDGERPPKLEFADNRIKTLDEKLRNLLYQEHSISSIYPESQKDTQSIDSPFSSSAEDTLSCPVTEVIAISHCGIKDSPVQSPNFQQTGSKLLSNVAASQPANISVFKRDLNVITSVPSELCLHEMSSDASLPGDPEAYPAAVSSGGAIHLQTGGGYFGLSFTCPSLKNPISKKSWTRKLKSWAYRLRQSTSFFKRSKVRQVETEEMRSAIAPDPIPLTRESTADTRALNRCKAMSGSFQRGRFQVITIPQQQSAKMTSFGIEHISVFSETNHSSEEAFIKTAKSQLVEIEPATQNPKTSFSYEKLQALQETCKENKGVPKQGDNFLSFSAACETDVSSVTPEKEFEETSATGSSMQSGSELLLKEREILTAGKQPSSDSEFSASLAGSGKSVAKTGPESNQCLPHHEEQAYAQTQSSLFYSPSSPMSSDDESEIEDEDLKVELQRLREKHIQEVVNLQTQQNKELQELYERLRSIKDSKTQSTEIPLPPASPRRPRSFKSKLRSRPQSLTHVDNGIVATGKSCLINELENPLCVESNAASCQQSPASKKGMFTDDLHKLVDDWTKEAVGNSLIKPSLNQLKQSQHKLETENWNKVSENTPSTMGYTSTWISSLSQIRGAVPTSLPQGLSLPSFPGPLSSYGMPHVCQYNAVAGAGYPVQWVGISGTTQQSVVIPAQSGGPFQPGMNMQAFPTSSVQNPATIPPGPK

[8] = target: kinases (KINOMEscan panel) (Homo sapiens, UniProt Q99755); settings: Published KINOMEscan; ref original PKIS2 published data; cited from earlier work
Chain of kinases (KINOMEscan panel) (Homo sapiens, UniProt Q99755) (Q99755 whole entry): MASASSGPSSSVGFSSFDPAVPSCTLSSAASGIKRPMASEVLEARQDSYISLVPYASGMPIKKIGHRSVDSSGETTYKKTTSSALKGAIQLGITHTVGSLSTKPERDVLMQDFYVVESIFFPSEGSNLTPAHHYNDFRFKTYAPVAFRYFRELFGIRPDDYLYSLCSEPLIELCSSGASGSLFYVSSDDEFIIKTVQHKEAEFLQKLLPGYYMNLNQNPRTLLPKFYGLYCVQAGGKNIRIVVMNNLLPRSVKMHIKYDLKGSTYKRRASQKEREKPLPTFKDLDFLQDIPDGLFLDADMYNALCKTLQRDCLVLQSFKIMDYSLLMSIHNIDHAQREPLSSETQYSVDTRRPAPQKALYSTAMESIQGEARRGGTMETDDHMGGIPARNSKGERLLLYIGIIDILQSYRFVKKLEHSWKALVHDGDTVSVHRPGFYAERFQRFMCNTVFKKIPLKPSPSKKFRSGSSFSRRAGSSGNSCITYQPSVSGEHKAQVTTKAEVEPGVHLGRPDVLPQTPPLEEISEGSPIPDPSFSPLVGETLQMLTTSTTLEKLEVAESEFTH

[9] = target: kinases (KINOMEscan panel) (Homo sapiens, UniProt Q13627); settings: Published KINOMEscan; ref original PKIS2 published data; cited from earlier work
[10] = target: T2, kinases (KINOMEscan panel) (Homo sapiens, UniProt O15530); settings: Published KINOMEscan; ref original PKIS2 published data; cited from earlier work
T2 sequence (O15530 1-556): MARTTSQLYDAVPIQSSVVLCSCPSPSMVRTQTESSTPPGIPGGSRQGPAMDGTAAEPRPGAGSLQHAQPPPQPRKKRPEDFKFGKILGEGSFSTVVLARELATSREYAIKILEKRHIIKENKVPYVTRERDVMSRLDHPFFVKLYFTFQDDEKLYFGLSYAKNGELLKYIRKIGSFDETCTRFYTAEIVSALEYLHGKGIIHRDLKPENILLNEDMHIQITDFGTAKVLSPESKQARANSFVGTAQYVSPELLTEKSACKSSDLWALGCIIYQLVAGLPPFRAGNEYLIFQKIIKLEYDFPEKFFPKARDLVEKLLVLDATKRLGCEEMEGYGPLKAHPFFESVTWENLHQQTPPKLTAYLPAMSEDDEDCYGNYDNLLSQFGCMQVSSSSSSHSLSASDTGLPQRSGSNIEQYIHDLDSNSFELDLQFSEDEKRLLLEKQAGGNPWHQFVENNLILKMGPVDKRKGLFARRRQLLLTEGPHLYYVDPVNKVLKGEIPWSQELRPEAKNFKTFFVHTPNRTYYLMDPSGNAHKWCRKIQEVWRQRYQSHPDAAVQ

[11] = target: kinases (KINOMEscan panel) (Homo sapiens, UniProt Q9NYY3); settings: PLK2; Published KINOMEscan; ref original PKIS2 published data; cited from earlier work
Chain of kinases (KINOMEscan panel) (Homo sapiens, UniProt Q9NYY3) (Q9NYY3 whole entry): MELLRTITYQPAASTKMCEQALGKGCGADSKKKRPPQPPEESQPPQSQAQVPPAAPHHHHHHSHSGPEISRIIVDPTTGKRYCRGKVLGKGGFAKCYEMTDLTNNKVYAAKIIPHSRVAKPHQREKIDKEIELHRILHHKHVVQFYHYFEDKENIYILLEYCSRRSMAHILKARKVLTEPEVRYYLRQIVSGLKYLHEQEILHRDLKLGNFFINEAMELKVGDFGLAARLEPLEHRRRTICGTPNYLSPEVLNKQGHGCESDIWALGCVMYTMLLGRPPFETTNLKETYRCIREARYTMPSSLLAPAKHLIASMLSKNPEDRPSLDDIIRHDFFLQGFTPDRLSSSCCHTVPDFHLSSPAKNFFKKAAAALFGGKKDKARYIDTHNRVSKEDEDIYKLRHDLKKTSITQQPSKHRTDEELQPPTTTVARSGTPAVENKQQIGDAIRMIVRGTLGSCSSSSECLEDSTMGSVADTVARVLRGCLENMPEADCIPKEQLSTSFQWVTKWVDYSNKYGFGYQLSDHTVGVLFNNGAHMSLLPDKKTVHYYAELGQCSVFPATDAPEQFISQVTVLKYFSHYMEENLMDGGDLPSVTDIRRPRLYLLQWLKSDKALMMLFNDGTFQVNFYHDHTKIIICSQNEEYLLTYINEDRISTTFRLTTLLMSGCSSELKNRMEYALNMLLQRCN

[12] = target: T3, kinases (KINOMEscan panel) (Homo sapiens, UniProt P57058); settings: kinase HUNK; Published KINOMEscan; ref original PKIS2 published data; cited from earlier work
T3 sequence (P57058 1-714): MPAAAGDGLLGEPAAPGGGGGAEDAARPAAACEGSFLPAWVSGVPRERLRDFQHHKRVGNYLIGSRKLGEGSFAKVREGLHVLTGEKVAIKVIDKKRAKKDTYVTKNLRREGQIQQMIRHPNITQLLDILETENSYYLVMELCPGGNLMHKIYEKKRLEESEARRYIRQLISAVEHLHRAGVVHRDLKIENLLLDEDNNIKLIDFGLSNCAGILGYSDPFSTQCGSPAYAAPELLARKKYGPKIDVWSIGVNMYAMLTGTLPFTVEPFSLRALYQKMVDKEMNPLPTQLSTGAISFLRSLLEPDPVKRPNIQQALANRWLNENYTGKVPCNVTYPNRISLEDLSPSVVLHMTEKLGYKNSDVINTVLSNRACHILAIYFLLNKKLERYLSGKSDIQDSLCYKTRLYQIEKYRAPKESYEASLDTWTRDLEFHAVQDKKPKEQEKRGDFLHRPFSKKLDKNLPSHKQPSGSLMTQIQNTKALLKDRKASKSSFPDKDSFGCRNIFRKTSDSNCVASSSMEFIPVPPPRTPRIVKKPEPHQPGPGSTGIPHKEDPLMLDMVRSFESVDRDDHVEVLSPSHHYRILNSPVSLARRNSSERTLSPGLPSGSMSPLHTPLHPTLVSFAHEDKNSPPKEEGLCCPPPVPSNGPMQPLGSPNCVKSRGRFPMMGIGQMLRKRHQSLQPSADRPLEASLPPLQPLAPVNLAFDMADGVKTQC

Chain of kinases (KINOMEscan panel) (Homo sapiens, UniProt P49841) (P49841 whole entry): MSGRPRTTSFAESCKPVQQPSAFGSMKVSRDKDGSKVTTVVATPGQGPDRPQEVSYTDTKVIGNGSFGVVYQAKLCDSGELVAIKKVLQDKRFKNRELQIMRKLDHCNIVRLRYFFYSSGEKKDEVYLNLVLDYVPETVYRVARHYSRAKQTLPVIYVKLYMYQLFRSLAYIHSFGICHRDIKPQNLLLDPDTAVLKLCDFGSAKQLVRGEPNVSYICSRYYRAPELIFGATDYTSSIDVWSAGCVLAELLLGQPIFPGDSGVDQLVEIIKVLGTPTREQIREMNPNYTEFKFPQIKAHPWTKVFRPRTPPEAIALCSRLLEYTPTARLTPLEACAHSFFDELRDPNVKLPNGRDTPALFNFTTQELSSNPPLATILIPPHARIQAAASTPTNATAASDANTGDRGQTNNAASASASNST

SMILES: Cc1cccc(-c2nc(Nc3ccncc3)c3ccccc3n2)n1 [NK215]
- KINOMEscan GSK3B [1]: 0
- KINOMEscan OSXR1 [2]: 0
- KINOMEscan NEK6 [3]: 21
- KINOMEscan TNK1 [4]: 39
- KINOMEscan ROS1 [5]: 0
- KINOMEscan FGFR4 [6]: 6
- KINOMEscan WNK3 [7]: 0
- KINOMEscan PIP5K1A [8]: 10
- KINOMEscan DYRK1A [9]: 0
- KINOMEscan PDPK1 [10]: 24
- KINOMEscan PLK2 [11]: 0
- KINOMEscan HUNK [12]: 0
